Key:
Parameters in all cases: species or system AML cell lines (8); Primary HTS, single concentration about 10 uM, Cell Titer Glo viability; log10 luminescence, per cent inhibition relative to cycloheximide control
Conditions in all cases: 72 h, relative to cycloheximide control, log10 luminescence; inhibitor
[1] = system: CMS
[2] = system: CMK
[3] = system: ML-2
[4] = system: U937
[5] = system: M07e
[6] = system: MV4-11
[7] = system: MOLM-13
[8] = system: CHRF288-11

COc1ccc(-c2nn3ncccc3c2-c2ccnc(Nc3ccc(F)c(F)c3)n2)cc1 [SJ000573231-1, U17838/182/3]
CMS %inh [1]: 1.385%
CMK %inh [2]: 1.273%
ML-2 %inh [3]: 2.035%
U937 %inh [4]: -1.69%
M07e %inh [5]: -2.16%
MV4-11 %inh [6]: -1.012%
MOLM-13 %inh [7]: -1.234%
CHRF288-11 %inh [8]: -2.425%

COc1ccc2c(-c3ccnc(Nc4cccc(OC(F)(F)F)c4)n3)cnn2n1 [SJ000573232-1, U17838/93/4]
CMS %inh [1]: 1.867%
CMK %inh [2]: -2.18%
ML-2 %inh [3]: 8.399%
U937 %inh [4]: 2.538%
M07e %inh [5]: 3.247%
MV4-11 %inh [6]: 0.503%
MOLM-13 %inh [7]: -2.645%
CHRF288-11 %inh [8]: 5.074%

CCOc1ccc2c(-c3ccnc(Nc4cc(OC)cc(C(F)(F)F)c4)n3)cnn2n1 [SJ000573233-1, U17838/82/6]
CMS %inh [1]: 0.7407%
CMK %inh [2]: -2.522%
ML-2 %inh [3]: 0.4459%
U937 %inh [4]: 1.137%
M07e %inh [5]: 5.562%
MV4-11 %inh [6]: 0.1159%
MOLM-13 %inh [7]: -2.068%
CHRF288-11 %inh [8]: 13.25%

Clc1ccc(CNc2nccc(-c3cnn4ncccc34)n2)cc1 [SJ000573234-1, U16767/129/1]
CMS %inh [1]: 12.69%
CMK %inh [2]: 3.942%
ML-2 %inh [3]: 6.981%
U937 %inh [4]: 20.4%
M07e %inh [5]: 7.216%
MV4-11 %inh [6]: 36.98%
MOLM-13 %inh [7]: 8.357%
CHRF288-11 %inh [8]: 14.43%

CN1CCC(n2cnc(-c3ccc(F)cc3)c2-c2ccnc(Nc3ccccc3)n2)CC1 [SJ000573236-1, TG19207-284A1]
CMS %inh [1]: 10.11%
CMK %inh [2]: 43.62%
ML-2 %inh [3]: 9.737%
U937 %inh [4]: 6.434%
M07e %inh [5]: 7.373%
MV4-11 %inh [6]: 26.4%
MOLM-13 %inh [7]: 50.36%
CHRF288-11 %inh [8]: 30.13%

Cc1nn(C)c2cc(N(C)c3ccnc(Nc4cccc(S(N)(=O)=O)c4)n3)ccc12 [SJ000573237-1, U17574/1/1]
CMS %inh [1]: 12.43%
CMK %inh [2]: 54.18%
ML-2 %inh [3]: 1.956%
U937 %inh [4]: 9.474%
M07e %inh [5]: 4.667%
MV4-11 %inh [6]: 42.73%
MOLM-13 %inh [7]: 82.12%
CHRF288-11 %inh [8]: 20.72%

CN(C)CCNC(=O)Nc1ccc(N(C)c2ccnc(Nc3ccc(CS(C)(=O)=O)cc3)n2)cc1 [SJ000573239-1, U17983/95/3]
CMS %inh [1]: -0.9741%
CMK %inh [2]: 26.79%
ML-2 %inh [3]: 15.37%
U937 %inh [4]: -1.201%
M07e %inh [5]: 0.06927%
MV4-11 %inh [6]: 73.54%
MOLM-13 %inh [7]: 92.53%
CHRF288-11 %inh [8]: 29.73%

COc1ccc(CNC(=O)c2ccc(-c3cc(-c4nnc(C)o4)ccc3C)cc2)cc1 [SJ000573240-1, R5419/62/2]
CMS %inh [1]: -0.9608%
CMK %inh [2]: -2.585%
ML-2 %inh [3]: 2.422%
U937 %inh [4]: 0.2137%
M07e %inh [5]: 1.245%
MV4-11 %inh [6]: -0.02622%
MOLM-13 %inh [7]: 2.636%
CHRF288-11 %inh [8]: 2.517%

Cc1cc(O)cc(C)c1/C=C/c1cncc(C(=O)N(C)C)c1 [SJ000573241-1, U11962/4/2]
CMS %inh [1]: 2.581%
CMK %inh [2]: 1.656%
ML-2 %inh [3]: -0.6112%
U937 %inh [4]: -1.176%
M07e %inh [5]: 3.606%
MV4-11 %inh [6]: 0.1016%
MOLM-13 %inh [7]: -1.208%
CHRF288-11 %inh [8]: 4.933%

COC(=O)c1ccc2c(c1)C(=Cc1cc(Br)c(O)c(Br)c1)C(=O)N2 [SJ000573242-1, U8097/138/1]
CMS %inh [1]: 10.7%
CMK %inh [2]: 10.16%
ML-2 %inh [3]: 8.878%
U937 %inh [4]: 4.474%
M07e %inh [5]: 3.423%
MV4-11 %inh [6]: 16.92%
MOLM-13 %inh [7]: 7.69%
CHRF288-11 %inh [8]: 6.512%

NCc1ccc(-c2nc(-c3ccc(Cl)c(O)c3)c(-c3ccncc3)[nH]2)cc1 [SJ000573243-1, AN48585-012A1]
CMS %inh [1]: -0.03858%
CMK %inh [2]: 0.6536%
ML-2 %inh [3]: 1.975%
U937 %inh [4]: -0.0474%
M07e %inh [5]: 3.038%
MV4-11 %inh [6]: 1.86%
MOLM-13 %inh [7]: 4.769%
CHRF288-11 %inh [8]: -2.078%

CCn1c(-c2nonc2N)nc2cnc(Oc3cccc(NC(=O)c4ccc(N(C)C)cc4)c3)cc21 [SJ000573244-1, DG202759-186A1]
CMS %inh [1]: 1.931%
CMK %inh [2]: 54.89%
ML-2 %inh [3]: 13.68%
U937 %inh [4]: 5.13%
M07e %inh [5]: -4.099%
MV4-11 %inh [6]: 28.29%
MOLM-13 %inh [7]: 0.8338%
CHRF288-11 %inh [8]: 1.25%

CC(=O)NCc1cccc(C#Cc2cncnc2Nc2ccc(OCc3cccc(F)c3)c(Cl)c2)c1 [SJ000573245-1, U17810/92/1]
CMS %inh [1]: 2.982%
CMK %inh [2]: 4.208%
ML-2 %inh [3]: 1.051%
U937 %inh [4]: 4.477%
M07e %inh [5]: 1.428%
MV4-11 %inh [6]: 1.627%
MOLM-13 %inh [7]: 4.772%
CHRF288-11 %inh [8]: -2.703%

CN1CCC(n2cnc(-c3ccc(F)cc3)c2-c2ccnc(NCCO)n2)CC1 [SJ000573246-1, TG19207-178A1]
CMS %inh [1]: -0.04607%
CMK %inh [2]: 15.99%
ML-2 %inh [3]: 6.134%
U937 %inh [4]: 1.73%
M07e %inh [5]: 3.039%
MV4-11 %inh [6]: 13.81%
MOLM-13 %inh [7]: 21.36%
CHRF288-11 %inh [8]: 13.91%

c1ccc(Cc2nc3ccc(Nc4ncnc5ccccc45)cc3[nH]2)cc1 [SJ000573247-1, C3072/110/1]
CMS %inh [1]: 0.8443%
CMK %inh [2]: -4.013%
ML-2 %inh [3]: 2.215%
U937 %inh [4]: -1.321%
M07e %inh [5]: 0.8889%
MV4-11 %inh [6]: 1.262%
MOLM-13 %inh [7]: 6.702%
CHRF288-11 %inh [8]: 3.355%

COc1ccc2cc(-c3c(-c4ccncc4)nc(-c4ccc([S+](C)[O-])cc4C)n3C)ccc2c1 (stereo not shown) [SJ000573248-1, NJ44157-082A1]
CMS %inh [1]: 2.672%
CMK %inh [2]: 1.35%
ML-2 %inh [3]: 0.217%
U937 %inh [4]: 1.089%
M07e %inh [5]: 7.477%
MV4-11 %inh [6]: 7.703%
MOLM-13 %inh [7]: 2.934%
CHRF288-11 %inh [8]: 5.983%

CNC(=O)c1cncc(/C=C/c2c(C)cccc2C)c1 [SJ000573249-1, U12068/55/2]
CMS %inh [1]: 2.842%
CMK %inh [2]: 2.958%
ML-2 %inh [3]: 1.303%
U937 %inh [4]: -0.6106%
M07e %inh [5]: 6.499%
MV4-11 %inh [6]: 1.251%
MOLM-13 %inh [7]: 0.7031%
CHRF288-11 %inh [8]: 2.946%

FC(F)(F)c1cccc(Nc2nccc(-c3cnn4nc(-c5ccccc5)ccc34)n2)c1 [SJ000573250-1, U17838/151/2]
CMS %inh [1]: 3.035%
CMK %inh [2]: 0.1975%
ML-2 %inh [3]: -0.4365%
U937 %inh [4]: -0.9941%
M07e %inh [5]: 2.996%
MV4-11 %inh [6]: 3.227%
MOLM-13 %inh [7]: 2.078%
CHRF288-11 %inh [8]: 8.085%

NC(=O)c1ccc(-c2nc(-c3ccccn3)c(-c3ccc4c(c3)OCO4)[nH]2)cc1 [SJ000573251-1, TH48888-160A1]
CMS %inh [1]: 1.606%
CMK %inh [2]: 9.718%
ML-2 %inh [3]: 2.652%
U937 %inh [4]: -1.697%
M07e %inh [5]: 3.715%
MV4-11 %inh [6]: 2.981%
MOLM-13 %inh [7]: 3.34%
CHRF288-11 %inh [8]: 1.837%

Fc1cccc(COc2ccc(Nc3ncnc4cc(-c5ccc[nH]5)sc34)cc2Cl)c1 [SJ000573252-1, U16950/26/1]
CMS %inh [1]: 15.37%
CMK %inh [2]: 115.2%
ML-2 %inh [3]: 17.93%
U937 %inh [4]: 11.09%
M07e %inh [5]: 5.221%
MV4-11 %inh [6]: 9.963%
MOLM-13 %inh [7]: 14.24%
CHRF288-11 %inh [8]: 1.14%

COc1ccccc1-c1cc(/C=C2\C(=O)Nc3ncc(Br)cc32)cc(Br)c1O [SJ000573253-1, U16719/161/1]
CMS %inh [1]: -1.153%
CMK %inh [2]: 2.536%
ML-2 %inh [3]: 1.918%
U937 %inh [4]: -3.171%
M07e %inh [5]: 2.858%
MV4-11 %inh [6]: 0.2955%
MOLM-13 %inh [7]: -1.113%
CHRF288-11 %inh [8]: -3.427%

OCc1ccc(-c2nc(-c3ccc4c(c3)OCO4)c(-c3ccccn3)[nH]2)cc1 [SJ000573254-1, FH98924-116A1]
CMS %inh [1]: 0.5352%
CMK %inh [2]: -1.373%
ML-2 %inh [3]: 2.365%
U937 %inh [4]: -3.528%
M07e %inh [5]: 0.7981%
MV4-11 %inh [6]: -0.8385%
MOLM-13 %inh [7]: 0.3005%
CHRF288-11 %inh [8]: -3.015%

COc1cc2ncn(-c3cc(OCc4cccs4)c(C(N)=O)s3)c2cc1OC [SJ000573255-1, U21051/7/15]
CMS %inh [1]: 9.159%
CMK %inh [2]: -3.278%
ML-2 %inh [3]: 24.59%
U937 %inh [4]: 17.16%
M07e %inh [5]: 12.77%
MV4-11 %inh [6]: 6.732%
MOLM-13 %inh [7]: 63.69%
CHRF288-11 %inh [8]: 6.199%

— publication PMC6522510 (Nature Communications, 2019)
